For 15 compounds, IC50 and Ki results are on record in ChEMBL document CHEMBL1140597, “Evaluating scoring functions for docking and designing beta-secretase inhibitors” (Bioorg Med Chem Lett, 2007).

Beta-secretase 1, sequence (P56817 whole entry): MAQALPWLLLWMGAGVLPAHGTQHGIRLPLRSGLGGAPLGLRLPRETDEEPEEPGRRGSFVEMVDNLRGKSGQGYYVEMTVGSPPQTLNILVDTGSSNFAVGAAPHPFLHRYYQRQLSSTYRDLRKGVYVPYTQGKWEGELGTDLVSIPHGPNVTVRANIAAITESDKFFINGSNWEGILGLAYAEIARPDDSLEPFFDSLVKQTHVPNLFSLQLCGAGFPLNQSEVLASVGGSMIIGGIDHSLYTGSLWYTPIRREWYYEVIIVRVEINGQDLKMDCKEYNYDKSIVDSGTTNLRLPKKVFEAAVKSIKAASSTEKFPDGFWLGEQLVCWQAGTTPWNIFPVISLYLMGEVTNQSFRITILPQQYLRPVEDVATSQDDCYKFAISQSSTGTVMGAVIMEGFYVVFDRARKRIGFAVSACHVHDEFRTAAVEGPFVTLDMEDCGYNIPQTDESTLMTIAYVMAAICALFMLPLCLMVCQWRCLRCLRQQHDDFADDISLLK

This assay concerns the target Beta-secretase 1 (Homo sapiens, UniProt P56817). As to the kind of experiment: Inhibition of BACE1.
`CC(=O)c1ccccc1-c1cc(C(=O)N[C@@H](Cc2ccccc2)[C@H](O)CNC2CC2)cc(C(=O)N[C@H](C)c2ccccc2)c1` gave an IC50 of 317 nM.
Take `CSCC[C@H](NC(=O)[C@@H](NC(=O)OC(C)(C)C)C(C)C)C(=O)N[C@@H](CC(C)C)[C@@H](O)C[C@@H](C)C(=O)N[C@H](C(=O)NCc1ccccc1)C(C)C`: the Ki was 5810 nM.
In turn, `CC(=O)c1ccccc1-c1cc(C(=O)N[C@@H](Cc2ccccc2)[C@H](O)CNCC2CC2)cc(C(=O)N[C@H](C)c2ccccc2)c1` had an IC50 of 418 nM.
On to `CC(=O)c1ccccc1-c1cc(C(=O)N[C@H](CO)Cc2ccccc2)cc(C(=O)N[C@H](C)c2ccccc2)c1`, for which the IC50 worked out at 9900 nM.
With `CC(=O)c1ccccc1-c1cc(C(=O)N[C@@H](Cc2ccccc2)[C@H](O)CN[C@H](C)c2ccccc2)cc(C(=O)N[C@H](C)c2ccccc2)c1`, the IC50 stood at 348 nM.
`CC(=O)c1ccccc1-c1cc(C(=O)N[C@@H](Cc2ccccc2)[C@H](O)CN2CCC2)cc(C(=O)N[C@H](C)c2ccccc2)c1` yielded an IC50 of more than 10000 nM.
`CC(=O)c1ccccc1-c1cc(C(=O)N[C@@H](Cc2ccccc2)[C@H](O)CNC(C)C)cc(C(=O)N[C@H](C)c2ccccc2)c1` yielded an IC50 of 674 nM.
Compound `CC(C)C[C@H](NC(=O)[C@H](CS(C)(=O)=O)NC(=O)[C@@H](NC(=O)OC(C)(C)C)C(C)C)[C@@H](O)C[C@@H](C)C(=O)N[C@H](C(=O)NCc1ccccc1)C(C)C` registered a Ki of 8 nM.
Compound H-ELDLAVEF-OH gave a Ki of 0.3 nM.
`CC(=O)c1ccccc1-c1cc(C(=O)N[C@@H](Cc2ccccc2)[C@H](O)CNC2CCC2)cc(C(=O)N[C@H](C)c2ccccc2)c1` returned an IC50 of 1400 nM. This counts as single-digit micromolar.
For `CC(=O)c1ccccc1-c1cc(C(=O)N[C@@H](Cc2ccccc2)[C@H](O)CN(C)Cc2ccccc2)cc(C(=O)N[C@H](C)c2ccccc2)c1`, the IC50 is more than 10000 nM.
Turning to `CC(=O)c1ccccc1-c1cc(C(=O)N[C@@H](Cc2ccccc2)[C@H](O)CNCc2ccccc2)cc(C(=O)N[C@H](C)c2ccccc2)c1`, half-maximal inhibition (IC50) was put at 115 nM. This counts as sub-micromolar.
`CC(=O)c1ccccc1-c1cc(C(=O)N[C@@H](Cc2ccccc2)[C@H](O)CN[C@@H](C)c2ccccc2)cc(C(=O)N[C@H](C)c2ccccc2)c1` had an IC50 of 115 nM.
The same measure, in the same setting: then `C=CCNC[C@@H](O)[C@H](Cc1ccccc1)NC(=O)c1cc(C(=O)N[C@H](C)c2ccccc2)cc(-c2ccccc2C(C)=O)c1`, with 223 nM.
As for `CC(=O)c1ccccc1-c1cc(C(=O)N[C@@H](Cc2ccccc2)[C@H](O)CNc2ccccc2)cc(C(=O)N[C@H](C)c2ccccc2)c1`, the IC50 was found to be 110 nM.
